Test results reported in patent US20090004211A1, “METHOD FOR EFFECTING LOCALIZED, NON-SYSTEMIC AND SYSTEMIC, IMMUNOGENIC TREATMENT OF CANCER USING ERP57 TRANSLOCATION” (priority 2006, published 2009).

Experiments:
CRT [1] = experiment: Biotinylation of cell surface proteins, 2D gel electrophoresis and mass spectrometry: CRT; format: cell-based, mouse; details: 4 h treatment, vs untreated cells
Method: Biotinylation and recovery of cell surface proteins were performed with a method adopted from Gottardi et al. (Gottardi, C. J. et al., “Biotinylation and assessment of membrane polarity: caveats and methodological concerns,” Am J Physiol 268, F285-295 (1995)) and Hanwell et al. (Hanwell, D. et al., “Trafficking and cell surface stability of the epithelial Na+ channel expressed in epithelial Madin-Darby canine kidney cells,” J Biol Chem 277, 9772-9779 (2002)). Briefly, 20×10^6 CT26 cells grown on 75 cm^2 flask were placed on ice and washed three times with ice-cold PBS-Ca^2+—Mg^2+ (PBS with 0.1 mM CaCl2 and 1 mM MgCl2). Membrane proteins were then biotinylated by a 30-minute incubation at 4° C. with NHS-SS-biotin 1.25 mg/ml freshly diluted into biotinylation buffer (10 mM triethanolamine, 2 mM CaCl2, 150 mM NaCl, pH 7.5) with gentle agitation. CT26 cells were rinsed with PBS-Ca^2+—Mg^2++glycine (100 mM) and washed in this buffer for 20 minutes at 4° C. to quench unreacted biotin. The cells were then rinsed twice with PBS-Ca^2+—Mg^2+, scraped in cold PBS, and pelleted at 2,000 rpm at 4° C. The pellets were solubilized for 45 min in […] of lysis buffer (1% Triton X-100, 150 mM NaCl, 5 mM EDTA, 50 mM Tris, pH 7.5) containing protease inhibitors. […]

CT26 cells = experiment: Phagocytosis assay: uptake of treated tumor cells by dendritic cells; format: cell-based, mouse; details: before apoptotic changes
Method: BM cells were flushed from the tibias and femurs of BALB/c mice with culture medium composed of RPMA 1640 medium supplemented with 10% heat-inactivated FBS, sodium pyruvate, […] 2-ME. 10 mM HEPES (pH 7.4), and penicillin/streptomycin. After one centrifugation, BM cells were resuspended in Tris-ammonium chloride for 2 min to lyse RBC. After one more centrifugation, BM cells (1×10^6 cells/ml) were cultured in medium supplemented with 100 ng/ml recombinant mouse FLT3 ligand in 6-well plates. […] In 12-well plates, […] adherent CT26 cells were labeled with Celltracker Orange and then incubated with drugs. […] Alternatively CT26 cells were coated with 3 μg/10^6 cells of rCRT on ice for 30 minutes and washed twice prior to addition to dendritic cells. Cells were then harvested, washed three times with medium supplemented with FBS and cocultured with immature DC for 2 hours at a ratio of 1:1 and 1:5. At the end of the incubation, cells were harvested with Versene, pooled with non-adherent cells present in the supernatant, washed and stained with CD11c-FITC antibody. Phagocytosis was assessed by FACS analysis of double positive cells. Phagocytic indexes refer to the ratio between values obtained at […] of co-incubation between DC and tumor cells. Trypsinized CT26 cells were enucleated as described. Briefly, cells were treated in 2 ml of complete RPMI medium containing cytochalasin B (10 μg/ml; Sigma) and DNase I (80 U/ml; Sigma). Cell suspension was adjusted to a final concentration of 5×10^6/ml and incubated at 37° C. for 45 minutes before being layered onto a previously prepared discontinuous Ficoll density gradient (3 ml of 100%, in 1 ml of 90% and 3 ml of 55% Ficoll Paque layer containing 5 μg/ml cytochalasin B and 40 U/ml DNase I; gradients were prepared in ultracentrifuge tubes and pre-equilibrated at 37° C. in a CO2 incubator overnight). Gradients containing cell suspensions were centrifugated in a prewarmed SW41 Beckman rotor at 25 000 rpm for 20 minutes at 30° C. The cytoplasts-enriched fraction was collected from the interface between 90 and 100% Ficoll layers, washed in complete RPMI 1640 medium, and incubated at 37° C. The cells were incubated with mitoxantrone (MTX), calyculin (CA), salubrinal (Sal) and toutomycin (TA) for the period of time indicated in the experiment. […] Alternatively cythoplasts were cocultured with immature DC for 2 hours at a ratio of 1:1 and 1:5. At the end of the incubation, cells were harvested with versene, pooled with non-adherent cells present in the supernatant, washed and stained with CD11c-FITC antibody. Phagocytosis was assessed by FACS analysis of double positive cells.

CT26 tumor cells = experiment: Anti-tumor vaccination: treated dying CT26 cells injected s.c., challenge with live tumor cells in opposite flank; format: in vivo, BALB/c mice; details: CT26 cells treated in vitro with agent alone, immunocompetent BALB/c mice
ERP57 = experiment: Biotinylation of cell surface proteins, 2D gel electrophoresis and mass spectrometry: ERP57; format: cell-based, mouse; details: 4 h treatment, vs untreated cells
Method: Biotinylation and recovery of cell surface proteins were performed with a method adopted from Gottardi et al. (Gottardi, C. J. et al., “Biotinylation and assessment of membrane polarity: caveats and methodological concerns,” Am J Physiol 268, F285-295 (1995)) and Hanwell et al. (Hanwell, D. et al., “Trafficking and cell surface stability of the epithelial Na+ channel expressed in epithelial Madin-Darby canine kidney cells,” J Biol Chem 277, 9772-9779 (2002)). Briefly, 20×10^6 CT26 cells grown on 75 cm^2 flask were placed on ice and washed three times with ice-cold PBS-Ca^2+—Mg^2+ (PBS with 0.1 mM CaCl2 and 1 mM MgCl2). Membrane proteins were then biotinylated by a 30-minute incubation at 4° C. with NHS-SS-biotin 1.25 mg/ml freshly diluted into biotinylation buffer (10 mM triethanolamine, 2 mM CaCl2, 150 mM NaCl, pH 7.5) with gentle agitation. CT26 cells were rinsed with PBS-Ca^2+—Mg^2++glycine (100 mM) and washed in this buffer for 20 minutes at 4° C. to quench unreacted biotin. The cells were then rinsed twice with PBS-Ca^2+—Mg^2+, scraped in cold PBS, and pelleted at 2,000 rpm at 4° C. The pellets were solubilized for 45 min in […] of lysis buffer (1% Triton X-100, 150 mM NaCl, 5 mM EDTA, 50 mM Tris, pH 7.5) containing protease inhibitors. The lysates were clarified by centrifugation at 14,000×g for 10 min at 4° C., and the supernatants were incubated overnight with packed streptavidin-agarose beads to recover biotinylated proteins. The beads were then pelleted by centrifugation, and aliquots of supernatants were taken to represent the unbound, intracellular pool of proteins. Biotinylated proteins were eluted from the beads by heating to 100° C. for 5 minutes in SDS-PAGE sample buffer before loading onto a 10% SDS-PAGE gel as described above. To ensure the absence of leakage of biotin into the cells, the absence of the intracellular protein actin and GAPDH in biotinylated extracts was systematically verified.
Purified proteins were precipitated using the Ettan 2-D clean up kit were subsequently resuspended in urea buffer (7M urea, 2M thiourea, 2% Chaps, 1% Sulfobetaine SB3-10, 1% Amidosulfobetaine ASB14, 50 mM DTT). For the first dimension of protein separation, isoelectric focusing (IEF) was performed using 18-cm immobilized nonlinear pH gradient strips (pH 3 to 10; GE Healthcare) on a electrophoresis unit. […]

CRT [2] = experiment: Fluorescence detection of cell surface CRT (cytofluorometry); details: intact cells
Method: CT26 cells (on a glass slide or in 12-well plates) were first washed with FACS buffer (1×PBS, 5% fetus bovine serum, and 0.1% sodium azide) and then incubated with rabbit anti-mouse CRT antibody (1:100, Stressgen), or rabbit anti-mouse ERP57 antibody (abcam) in FACS buffer at 4° C. for 30 min. […] After washing three times with FACS buffer, surface CRT and ERP57 was detected by cytofluorometric analysis on a FACS Vantage. In some experiments, cells were fixed with 4% paraformaldehyde, counterstained with Hoechst (2 μM; Sigma), followed by fluorescence microscopic assessment.
Trypsinized CT26 cells were enucleated as described. Briefly, cells were treated in 2 ml of complete RPMI medium containing cytochalasin B (10 μg/ml; Sigma) and DNase I (80 U/ml; Sigma). […] Gradients containing cell suspensions were centrifugated in a prewarmed SW41 Beckman rotor at 25 000 rpm for 20 minutes at 30° C. […] Then the cell surface CRT was detected (see materials and methods) and the viability was determined by with propidium iodine staining (2 μg/ml, Sigma) for 5 min followed by cytofluorometric analysis.

Q: Which results are given for `COc1cccc2c1C(=O)c1c(O)c3c(c(O)c1C2=O)C[C@@](O)(C(=O)CO)C[C@@H]3O[C@H]1C[C@H](N)[C@H](O)[C@H](C)O1` [doxorubicin]?
A: induction of surface CRT, factor (CRT [1]): 6; time after treatment at which tumor cells are phagocytosed by DC (CT26 cells): within a few hours after treatment; immunogenicity of cell death (protection against tumor growth on rechallenge) (CT26 tumor cells): elicited immunogenic cell death; induction of surface ERP57 spot 1, factor (ERP57): 4.1; induction of surface ERP57 spot 2, factor (ERP57): 3.4; induction of surface ERP57 spot 3, factor (ERP57): 8; induction of surface ERP57 spot 4, factor (ERP57): 8.1; time after treatment at which CRT exposure is detectable (CRT [2]): 1 h
